From patent US10189841B2, “Purinones as ubiquitin-specific protease 1 inhibitors” (Forma Therapeutics, Inc., priority 2015, dated 2019)

Each compound was assayed against USP1 (construct USP1 (I-785, GG670, 671AA)/UAF1 (I-677)-Flag) (Homo sapiens (Human), UniProt O94782, G670A/G671A) (assay: Ubiquitin-Rhodamine 110 assay for USP1 activity). Settings: USP1/UAF1 25 pM, Ub-Rh110 25 nM, 30 min preincubation.
Type: biochemical
Procedure, shortened: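 Two formats with the USP1/UAF1 complex and 25 nM ubiquitin-rhodamine 110 in pH 8.0 Tris buffer with calcium, glutathione and detergent. Single-point screening used 10 µM, 100 pM enzyme and 45 min. Inhibition was set against no-enzyme and DMSO wells.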

USP1 (construct USP1 (I-785, GG670, 671AA)/UAF1 (I-677)-Flag), sequence (O94782 whole entry G670A/G671A): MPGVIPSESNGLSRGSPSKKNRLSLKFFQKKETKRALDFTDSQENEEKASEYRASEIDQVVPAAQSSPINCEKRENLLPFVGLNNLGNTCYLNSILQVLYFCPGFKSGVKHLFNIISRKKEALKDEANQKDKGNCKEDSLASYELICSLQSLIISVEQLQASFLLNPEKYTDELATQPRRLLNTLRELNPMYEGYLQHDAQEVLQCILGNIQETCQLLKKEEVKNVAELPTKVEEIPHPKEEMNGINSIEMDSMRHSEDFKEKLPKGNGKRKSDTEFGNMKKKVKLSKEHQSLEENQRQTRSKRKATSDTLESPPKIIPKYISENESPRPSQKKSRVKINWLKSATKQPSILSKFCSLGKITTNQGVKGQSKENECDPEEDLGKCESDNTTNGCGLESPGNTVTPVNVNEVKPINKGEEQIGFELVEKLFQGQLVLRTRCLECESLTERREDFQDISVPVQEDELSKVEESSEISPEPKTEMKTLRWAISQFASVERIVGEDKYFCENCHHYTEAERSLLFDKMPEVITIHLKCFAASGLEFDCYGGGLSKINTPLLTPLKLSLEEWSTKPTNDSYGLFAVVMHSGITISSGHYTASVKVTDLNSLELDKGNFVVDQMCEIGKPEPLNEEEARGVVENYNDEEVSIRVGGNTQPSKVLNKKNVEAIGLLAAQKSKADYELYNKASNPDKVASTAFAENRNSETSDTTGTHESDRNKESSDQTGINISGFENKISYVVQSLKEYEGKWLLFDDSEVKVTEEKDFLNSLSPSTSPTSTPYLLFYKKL
USP1 (construct USP1 (I-785, GG670, 671AA)/UAF1 (I-677)-Flag), sequence (Q8TAF3 whole entry partner): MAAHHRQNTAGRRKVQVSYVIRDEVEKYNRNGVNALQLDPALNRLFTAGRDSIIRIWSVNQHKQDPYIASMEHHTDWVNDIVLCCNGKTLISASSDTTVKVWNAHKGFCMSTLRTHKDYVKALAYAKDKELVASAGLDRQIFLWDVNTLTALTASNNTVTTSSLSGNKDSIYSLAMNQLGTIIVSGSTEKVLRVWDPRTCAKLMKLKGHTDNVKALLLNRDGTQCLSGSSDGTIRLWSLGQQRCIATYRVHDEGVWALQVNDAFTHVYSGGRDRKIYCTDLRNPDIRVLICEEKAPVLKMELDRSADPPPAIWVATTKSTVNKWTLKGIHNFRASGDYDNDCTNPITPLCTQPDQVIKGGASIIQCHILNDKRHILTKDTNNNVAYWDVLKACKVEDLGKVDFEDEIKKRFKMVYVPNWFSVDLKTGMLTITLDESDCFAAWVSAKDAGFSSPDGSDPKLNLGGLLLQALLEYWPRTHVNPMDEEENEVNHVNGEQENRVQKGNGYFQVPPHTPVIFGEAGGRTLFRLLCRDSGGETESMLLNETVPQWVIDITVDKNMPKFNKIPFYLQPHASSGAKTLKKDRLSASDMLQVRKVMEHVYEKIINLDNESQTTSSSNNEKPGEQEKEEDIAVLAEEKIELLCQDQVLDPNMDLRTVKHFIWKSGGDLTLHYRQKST

`Cn1cc(C(F)(F)F)nc1-c1ccc(Cn2c(=O)[nH]c3cnc(-c4cccnc4NCC4CCCO4)nc32)cc1` (centres unmarked) [Compound I-320, 9-(4-(1-methyl-4-(trifluoromethyl)-1H-imidazol-2-yl)benzyl)-2-(2-(((tetrahydrofuran-2-yl)methyl)amino)pyridin-3-yl)-7,9-dihydro-8H-purin-8-one] and `Cn1cc(C(F)(F)F)nc1-c1ccc(Cn2c(=O)[nH]c3cnc(-c4cccnc4N[C@H]4CCOC4)nc32)cc1` [Compound I-322, (S)-9-(4-(1-methyl-4-(trifluoromethyl)-1H-imidazol-2-yl)benzyl)-2-(2-((tetrahydrofuran-3-yl)amino)pyridin-3-yl)-7,9-dihydro-8H-purin-8-one] fall in the same range of IC50: 50 to 200 nM for the first, 50 to 200 nM for the second.

First: Cn1cc(C(F)(F)F)nc1-c1ccc(Cn2c(=O)[nH]c3cnc(-c4cccnc4NC4CCOCC4)nc32)cc1 [Compound I-321, 9-(4-(1-methyl-4-(trifluoromethyl)-1H-imidazol-2-yl)benzyl)-2-(2-((tetrahydro-2H-pyran-4-yl)amino)pyridin-3-yl)-7,9-dihydro-8H-purin-8-one]
Second: Cn1cc(C(F)(F)F)nc1-c1ccc(Cn2c(=O)[nH]c3cnc(-c4cccnc4N4CCOCC4)nc32)cc1 [Compound I-333, 9-(4-(1-methyl-4-(trifluoromethyl)-1H-imidazol-2-yl)benzyl)-2-(2-morpholinopyridin-3-yl)-7,9-dihydro-8H-purin-8-one]
The IC50 of the first is higher: 200 to 2000 nM for the first, 50 to 200 nM for the second.

`CN(C)c1ncccc1-c1ncc2[nH]c(=O)n(Cc3ccc(-c4nc(C(F)(F)F)cn4C)cc3)c2n1` [Compound I-323, 2-(2-(dimethylamino)pyridin-3-yl)-9-(4-(1-methyl-4-(trifluoromethyl)-1H-imidazol-2-yl)benzyl)-7,9-dihydro-8H-purin-8-one] and `CCN(C)c1ncccc1-c1ncc2[nH]c(=O)n(Cc3ccc(-c4nc(C(F)(F)F)cn4C)cc3)c2n1` [Compound I-331, 2-(2-(ethyl(methyl)amino)pyridin-3-yl)-9-(4-(1-methyl-4-(trifluoromethyl)-1H-imidazol-2-yl)benzyl)-7,9-dihydro-8H-purin-8-one] cannot be ordered by IC50: < 50 nM for the first, < 50 nM for the second.

First: CCN(CC)c1ncccc1-c1ncc2[nH]c(=O)n(Cc3ccc(-c4nc(C(F)(F)F)cn4C)cc3)c2n1 [Compound I-324, 2-(2-(diethylamino)pyridin-3-yl)-9-(4-(1-methyl-4-(trifluoromethyl)-1H-imidazol-2-yl)benzyl)-7,9-dihydro-8H-purin-8-one]
Second: COCCN(C)c1ncccc1-c1ncc2[nH]c(=O)n(Cc3ccc(-c4nc(C(F)(F)F)cn4C)cc3)c2n1 [Compound I-327, 2-(2-((2-methoxyethyl)(methyl)amino)pyridin-3-yl)-9-(4-(1-methyl-4-(trifluoromethyl)-1H-imidazol-2-yl)benzyl)-7,9-dihydro-8H-purin-8-one]
The IC50 of the first is lower: < 50 nM for the first, 50 to 200 nM for the second.

`Cn1cc(C(F)(F)F)nc1-c1ccc(Cn2c(=O)[nH]c3cnc(-c4cccnc4N4CCCC4)nc32)cc1` [Compound I-325, 9-(4-(1-methyl-4-(trifluoromethyl)-1H-imidazol-2-yl)benzyl)-2-(2-(pyrrolidin-1-yl)pyridin-3-yl)-7,9-dihydro-8H-purin-8-one] and `Cn1cc(C(F)(F)F)nc1-c1ccc(Cn2c(=O)[nH]c3cnc(-c4cccnc4N4CCCCC4)nc32)cc1` [Compound I-326, 9-(4-(1-methyl-4-(trifluoromethyl)-1H-imidazol-2-yl)benzyl)-2-(2-(piperidin-1-yl)pyridin-3-yl)-7,9-dihydro-8H-purin-8-one] cannot be ordered by IC50: < 50 nM for the first, < 50 nM for the second.

Compared with `CN1CCN(c2ncccc2-c2ncc3[nH]c(=O)n(Cc4ccc(-c5nc(C(F)(F)F)cn5C)cc4)c3n2)CC1` [Compound I-328, 9-(4-(1-methyl-4-(trifluoromethyl)-1H-imidazol-2-yl)benzyl)-2-(2-(4-methylpiperazin-1-yl)pyridin-3-yl)-7,9-dihydro-8H-purin-8-one], `Cn1cc(C(F)(F)F)nc1-c1ccc(Cn2c(=O)[nH]c3cnc(-c4cccnc4N4CCC4)nc32)cc1` [Compound I-335, 2-(2-(azetidin-1-yl)pyridin-3-yl)-9-(4-(1-methyl-4-(trifluoromethyl)-1H-imidazol-2-yl)benzyl)-7,9-dihydro-8H-purin-8-one] is lower in IC50: 200 to 2000 nM for the first, 50 to 200 nM for the second.

`Cn1cc(C(F)(F)F)nc1-c1ccc(Cn2c(=O)[nH]c3cnc(-c4cccnc4N4CCC(C(F)(F)F)CC4)nc32)cc1` [Compound I-329, 9-(4-(1-methyl-4-(trifluoromethyl)-1H-imidazol-2-yl)benzyl)-2-(2-(4-(trifluoromethyl)piperidin-1-yl)pyridin-3-yl)-7,9-dihydro-8H-purin-8-one] and `Cn1cc(C(F)(F)F)nc1-c1ccc(Cn2c(=O)[nH]c3cnc(-c4cccnc4N4CC(C(F)(F)F)C4)nc32)cc1` [Compound I-337, 9-(4-(1-methyl-4-(trifluoromethyl)-1H-imidazol-2-yl)benzyl)-2-(2-(3-(trifluoromethyl)azetidin-1-yl)pyridin-3-yl)-7,9-dihydro-8H-purin-8-one] cannot be ordered by IC50: < 50 nM for the first, < 50 nM for the second.

Compared with `CC(C)N(C)c1ncccc1-c1ncc2[nH]c(=O)n(Cc3ccc(-c4nc(C(F)(F)F)cn4C)cc3)c2n1` [Compound I-330, 2-(2-(isopropyl(methyl)amino)pyridin-3-yl)-9-(4-(1-methyl-4-(trifluoromethyl)-1H-imidazol-2-yl)benzyl)-7,9-dihydro-8H-purin-8-one], `CN(CC(F)(F)F)c1ncccc1-c1ncc2[nH]c(=O)n(Cc3ccc(-c4nc(C(F)(F)F)cn4C)cc3)c2n1` [Compound I-332, 2-(2-(methyl(2,2,2-trifluoroethyl)amino)pyridin-3-yl)-9-(4-(1-methyl-4-(trifluoromethyl)-1H-imidazol-2-yl)benzyl)-7,9-dihydro-8H-purin-8-one] is lower in IC50: 50 to 200 nM for the first, < 50 nM for the second.

`Cn1cc(C(F)(F)F)nc1-c1ccc(Cn2c(=O)[nH]c3cnc(-c4cccnc4N4CC(F)C4)nc32)cc1` [Compound I-334, 2-(2-(3-fluoroazetidin-1-yl)pyridin-3-yl)-9-(4-(1-methyl-4-(trifluoromethyl)-1H-imidazol-2-yl)benzyl)-7,9-dihydro-8H-purin-8-one] and `Cn1cc(C(F)(F)F)nc1-c1ccc(Cn2c(=O)[nH]c3cnc(-c4cccnc4N4CC(F)(F)C4)nc32)cc1` [Compound I-336, 2-(2-(3,3-difluoroazetidin-1-yl)pyridin-3-yl)-9-(4-(1-methyl-4-(trifluoromethyl)-1H-imidazol-2-yl)benzyl)-7,9-dihydro-8H-purin-8-one] cannot be ordered by IC50: < 50 nM for the first, < 50 nM for the second.

Compared with `CC(C)c1ccccc1-c1ncc2[nH]c(=O)n(Cc3ccc(-n4cc(C(C)(C)N)nn4)cc3)c2n1` [Compound I-338, 9-(4-(4-(2-aminopropan-2-yl)-1H-1,2,3-triazol-1-yl)benzyl)-2-(2-isopropylphenyl)-7,9-dihydro-8H-purin-8-one], `CC(C)c1ccccc1-c1ncc2[nH]c(=O)n(Cc3ccc(-n4cc(C(C)(C)O)nn4)cc3)c2n1` [Compound I-345, 9-(4-(4-(2-hydroxypropan-2-yl)-1H-1,2,3-triazol-1-yl)benzyl)-2-(2-isopropylphenyl)-7,9-dihydro-8H-purin-8-one] is lower in IC50: > 2000 nM for the first, 200 to 2000 nM for the second.

`CC(C)c1ccccc1-c1ncc2[nH]c(=O)n(Cc3ccc(-n4cc(CN(C)C)nn4)cc3)c2n1` [Compound I-339, 9-(4-(4-((dimethylamino)methyl)-1H-1,2,3-triazol-1-yl)benzyl)-2-(2-isopropylphenyl)-7,9-dihydro-8H-purin-8-one] and `CCN(CC)Cc1cn(-c2ccc(Cn3c(=O)[nH]c4cnc(-c5ccccc5C(C)C)nc43)cc2)nn1` [Compound I-346, 9-(4-(4-((diethylamino)methyl)-1H-1,2,3-triazol-1-yl)benzyl)-2-(2-isopropylphenyl)-7,9-dihydro-8H-purin-8-one] cannot be ordered by IC50: > 2000 nM for the first, > 2000 nM for the second.

`CC(C)c1ccccc1-c1ncc2[nH]c(=O)n(Cc3ccc(-n4cc(-c5ccccc5)nn4)cc3)c2n1` [Compound I-340, 2-(2-isopropylphenyl)-9-(4-(4-phenyl-1H-1,2,3-triazol-1-yl)benzyl)-7,9-dihydro-8H-purin-8-one] and `COc1ccc(-c2cn(-c3ccc(Cn4c(=O)[nH]c5cnc(-c6ccccc6C(C)C)nc54)cc3)nn2)cc1` [Compound I-341, 2-(2-isopropylphenyl)-9-(4-(4-(4-methoxyphenyl)-1H-1,2,3-triazol-1-yl)benzyl)-7,9-dihydro-8H-purin-8-one] fall in the same range of IC50: 200 to 2000 nM for the first, 200 to 2000 nM for the second.

`CC(C)c1ccccc1-c1ncc2[nH]c(=O)n(Cc3ccc(-n4cc(CCO)nn4)cc3)c2n1` [Compound I-342, 9-(4-(4-(2-hydroxyethyl)-1H-1,2,3-triazol-1-yl)benzyl)-2-(2-isopropylphenyl)-7,9-dihydro-8H-purin-8-one] and `COCc1cn(-c2ccc(Cn3c(=O)[nH]c4cnc(-c5ccccc5C(C)C)nc43)cc2)nn1` [Compound I-344, 2-(2-isopropylphenyl)-9-(4-(4-(methoxymethyl)-1H-1,2,3-triazol-1-yl)benzyl)-7,9-dihydro-8H-purin-8-one] fall in the same range of IC50: 200 to 2000 nM for the first, 200 to 2000 nM for the second.

Compared with `CC(C)c1ccccc1-c1ncc2[nH]c(=O)n(Cc3ccc(-n4cc(C5CC5)nn4)cc3)c2n1` [Compound I-343, 9-(4-(4-cyclopropyl-1H-1,2,3-triazol-1-yl)benzyl)-2-(2-isopropylphenyl)-7,9-dihydro-8H-purin-8-one], `CC(C)c1ccccc1-c1ncc2[nH]c(=O)n(Cc3ccc(-n4cc([C@@H](C)O)nn4)cc3)c2n1` [Compound I-347, (R)-9-(4-(4-(1-hydroxyethyl)-1H-1,2,3-triazol-1-yl)benzyl)-2-(2-isopropylphenyl)-7,9-dihydro-8H-purin-8-one] is higher in IC50: 50 to 200 nM for the first, > 2000 nM for the second. The first is the more potent here.

For `CCC(N)(CC)c1cn(-c2ccc(Cn3c(=O)[nH]c4cnc(-c5ccccc5C(C)C)nc43)cc2)nn1` [Compound I-348, 9-(4-(4-(3-aminopentan-3-yl)-1H-1,2,3-triazol-1-yl)benzyl)-2-(2-isopropylphenyl)-7,9-dihydro-8H-purin-8-one], the IC50 was > 2000 nM.
